IC50 and DC50 data for 23 compounds are collected here from EP4624466A1, “DEGRADER FOR DECOMPOSING CMET PROTEIN, AND PHARMACEUTICAL COMPOSITION COMPRISING SAME” (Innocure Therapeutics, Inc., priority 2022, dated 2024).

The term IC50 denotes the point on the concentration scale where inhibition reaches its midpoint. The DC50 is the concentration at which degradation of the target reaches its halfway point. Low values mean degradation at low concentration, high ones degradation only at high concentration.

The test system of assay [1] is MKN-45. In words: Cell viability / antiproliferative assay (WST-8), MKN-45.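 Further: MKN-45 is a human gastric cancer line overexpressing c-MET, growth inhibition read as WST-8 formazan absorbance at 450 nm after 2 h dye incubation.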 Particulars: read-out: MKN-45 IC50. Background: Tetrazolium assays rely on reduction of a dye to a coloured formazan, in cell work by metabolically active cells.
Experimental: c-MET overexpressing human gastric cancer cell lines [MKN45] and [SNU638] were cultured in RPMI medium with 10% fetal bovine serum, penicillin (100U/ml), and streptomycin (100mg/ml), and c-MET exon 14 skipping mutant human gastric cancer cell lines [Hs746T] were cultured in DMEM media. The c-MET overexpressing human lung cancer cell line EBC-1 was cultured in MEM media with the addition of 10% fetal bovine serum, penicillin (100U/ml), and streptomycin (100mg/ml). […] The compound synthesized in accordance with the present invention was prepared with a raw material solution of 10 mM dissolved in DMSO (dimethyl sulfoxide), and was sequentially diluted and processed.
In order to observe the inhibitory activity on cell growth, cells were dispensed in a 96-well plate at a concentration of 5,000 cells/well, and then treated with the compound prepared at various concentrations for 72 hours. The viability of the cells was calculated using GraphicPad Prism 8.0 software by adding 10 ml per well of WST-8 (water soluble tetrazolium salt) sample, which reacts with dehydrogenase present in the electron transport system of mitochondria to produce formazon, incubated for 2 hours, and measured absorbance at 450 nm.
Assay [2] addresses c-MET (Homo sapiens, UniProt P08581). As to the kind of experiment: c-MET protein degradation (Simple Western), MKN-45. It counts as cell-based. Also noted: assess the resolution of the compound of the present invention for c-MET expressed in cells; endogenous in cells; host or cells: MKN45 (human gastric cancer). Conditions: c-MET overexpressing gastric cancer cell line MKN-45, treated 24 hours. As for the experimental part: In order to assess the resolution of the compound of the present invention for c-MET expressed in cells, cells were dispensed in a 12-well plate at a concentration of 2 × 10^5 cells/well, and then gastric cancer cell lines were treated with samples for 24 hours and lung cancer cell lines were treated for 48 hours. Cell lysates were collected using a scraper on ice, centrifuged at 4°C15,000 rpm for 30 min to obtain a protein-containing supernatant. Protein expression was then measured using the Simple Western Automated Western Blot System Abby instrument using 3 µg of protein for each sample. SDS and heat-induced denaturation proteins were separated by molecular weight, attached to capillary, reacted with anti-c-MET or anti-GAPDH antibodies, which are primary antibodies, and then reacted with HRP-conjugated secondary antibodies, and analyzed the protein expression signal with compass software. Protein expression was normalized based on the expression value of GAPDH, and protein development in each sample was measured as a percentage (%) based on 100% of samples treated with 0.1% DMSO carriers, and DC50 (concentration of a compound where 50% protein inhibition is achieved) was calculated from the change in protein expression amount due to compound treatment.

Setting [3] is: MKN-45 cells, 72 hours, WST-8, Table 2.
Setting [4] is: MKN-45 cells, 72 hours, WST-8, Table 1.

The structures appear in SMILES notation. Read-outs that look alike come from different tables or passages of the source.

Chain of c-MET (P08581 25-1390): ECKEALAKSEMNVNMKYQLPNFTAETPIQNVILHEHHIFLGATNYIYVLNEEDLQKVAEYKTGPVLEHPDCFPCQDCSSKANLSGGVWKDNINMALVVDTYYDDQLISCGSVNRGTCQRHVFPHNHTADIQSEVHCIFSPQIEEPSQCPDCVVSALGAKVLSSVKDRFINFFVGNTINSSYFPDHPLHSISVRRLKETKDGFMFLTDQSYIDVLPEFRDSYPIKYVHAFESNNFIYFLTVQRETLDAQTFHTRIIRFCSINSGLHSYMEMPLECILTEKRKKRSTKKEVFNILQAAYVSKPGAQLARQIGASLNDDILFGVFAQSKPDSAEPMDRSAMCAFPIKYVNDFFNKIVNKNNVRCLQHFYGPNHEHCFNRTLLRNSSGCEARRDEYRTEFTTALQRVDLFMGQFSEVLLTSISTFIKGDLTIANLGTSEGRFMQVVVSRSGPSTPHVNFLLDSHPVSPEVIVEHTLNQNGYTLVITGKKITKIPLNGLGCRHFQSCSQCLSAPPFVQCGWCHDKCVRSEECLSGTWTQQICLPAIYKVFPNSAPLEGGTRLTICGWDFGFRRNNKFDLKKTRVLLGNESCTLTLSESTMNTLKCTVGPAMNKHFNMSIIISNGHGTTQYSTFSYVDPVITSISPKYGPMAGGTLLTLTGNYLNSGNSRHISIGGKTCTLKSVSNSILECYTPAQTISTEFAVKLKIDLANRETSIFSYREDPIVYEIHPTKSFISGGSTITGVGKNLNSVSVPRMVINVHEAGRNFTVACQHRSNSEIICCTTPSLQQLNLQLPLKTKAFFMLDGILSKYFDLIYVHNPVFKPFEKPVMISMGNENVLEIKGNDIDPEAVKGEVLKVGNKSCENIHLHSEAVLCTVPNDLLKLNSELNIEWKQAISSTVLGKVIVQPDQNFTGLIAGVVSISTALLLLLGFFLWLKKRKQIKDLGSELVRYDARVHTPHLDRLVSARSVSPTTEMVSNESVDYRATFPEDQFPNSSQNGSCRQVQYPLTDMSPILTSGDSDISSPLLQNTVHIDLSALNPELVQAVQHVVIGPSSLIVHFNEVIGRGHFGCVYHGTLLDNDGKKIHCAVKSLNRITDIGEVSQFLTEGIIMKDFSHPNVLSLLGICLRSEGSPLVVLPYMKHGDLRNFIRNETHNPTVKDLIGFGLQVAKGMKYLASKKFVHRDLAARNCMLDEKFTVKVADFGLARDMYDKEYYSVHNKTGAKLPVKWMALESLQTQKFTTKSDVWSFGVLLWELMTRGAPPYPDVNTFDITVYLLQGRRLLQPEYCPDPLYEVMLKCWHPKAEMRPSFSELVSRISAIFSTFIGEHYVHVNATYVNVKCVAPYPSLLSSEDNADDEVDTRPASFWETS

`Cc1nn(C2CCC(=O)NC2=O)c(=O)c2cc(N3CCN(CC(=O)N4CCC(COc5cnc(-c6cccc(Cn7nc(-c8cccc(C#N)c8)ccc7=O)c6)nc5)CC4)CC3)ccc12` (stereo not drawn) [ICT-0001214, 3-(1-(3-(5-((1-(2-(4-(3-(2,6-dioxopiperidin-3-yl)-1-methyl-4-oxo-3,4-dihydropetalazine-6-yl)piperazine-1-il)acetyl)piperidine-4-il)methoxy)pyrimidine-2-yl)benzyl)6-oxo-1,6-dihydropyridazine-3-yl)benzonitrile]: the half-maximal inhibitory concentration (IC50) in assay [1] (setting [3]) was less than 100 nM. In assay [2] (Table 2), this compound had a DC50 of less than 100 nM.
Regarding `Cc1nn(C2CCC(=O)NC2=O)c(=O)c2ccc(N3CCN(CCCC(=O)N4CCC(COc5cnc(-c6cccc(Cn7nc(-c8cccc(C#N)c8)ccc7=O)c6)nc5)CC4)CC3)cc12` (stereo not drawn) [ICT-0001175, 3-(1-(3-(5-((1-(4-(4-(2-(2,6-dioxopiperidine-3-yl)-4-methyl-1-oxo-1,2-dihydropthalazine-6-yl)piperazine-1-yl)butanoyl)piperidine-4-il)methoxy)pyrimidine-2-yl)benzyl)6-oxo-1,6-dihydropyridazine-3-yl)benzonitrile], the IC50 in assay [1] (Homo sapiens, MKN-45, 72 h) is less than 100 nM. The same compound yielded a half-maximal degradation concentration (DC50) in assay [2] (Table 2) of less than 100 nM.
For `Cn1cc(-c2cnc3c(nnn3C[C@@H]3CN(c4ncc(-c5ccc(CN6CCN(C(=O)CN7CCN(c8ccc9c(=O)n(C%10CCC(=O)NC%10=O)ncc9c8)CC7)CC6)cc5)cn4)CCO3)n2)cn1` (stereo partly drawn) [ICT-0001109], in assay [1] (Homo sapiens, MKN-45, 72 h), the concentration for half-maximal inhibition (IC50) was less than 100 nM. Moreover, the DC50 in assay [2] (Table 1) was less than 100 nM.
In the case of `N#Cc1cccc(-c2ccc(=O)n(Cc3cccc(-c4ncc(OCC5CCN(C(=O)COCCOCCOCCNc6ccc7c(=O)n(C8CCC(=O)NC8=O)ncc7c6)CC5)cn4)c3)n2)c1` (stereo not drawn) [ICT-0000987], the IC50 in assay [1] (setting [3]) was less than 100 nM. Moreover, in assay [2] (Table 2), the half-maximal degradation concentration (DC50) is 100 to 1000 nM.
On to `Cc1nn(C2CCC(=O)NC2=O)c(=O)c2ccc(N3CCN(C[C@@H]4CN(C(=O)CN5CCC(COc6cnc(-c7cccc(Cn8nc(-c9cccc(C#N)c9)ccc8=O)c7)nc6)CC5)CCO4)CC3)cc12` (stereo partly drawn) [ICT-0001258], for which the IC50 in assay [1] (Homo sapiens, MKN-45, 72 h) is less than 100 nM. Further, the DC50 in assay [2] (Table 2) is less than 100 nM.
As to `Cc1nn(C2CCC(=O)NC2=O)c(=O)c2cc(N3CCN(C(=O)CCCCN4CCC(COc5cnc(-c6cccc(Cn7nc(-c8cccc(C#N)c8)ccc7=O)c6)nc5)CC4)CC3)ccc12` (stereo not drawn) [ICT-0001251], the IC50 in assay [1] (Homo sapiens, MKN-45, 72 h) is less than 100 nM. In assay [2] (Table 2), the DC50 was less than 100 nM.
As for `Cc1nn(C2CCC(=O)NC2=O)c(=O)c2cc(N3CCC(N4CCN(CC(=O)N5CCC(COc6cnc(-c7cccc(Cn8nc(-c9cccc(C#N)c9)ccc8=O)c7)nc6)CC5)CC4)CC3)ccc12` (stereo not drawn) [ICT-0001270], in assay [1] (Homo sapiens, MKN-45, 72 h), the half-maximal inhibitory concentration (IC50) is less than 100 nM. The same compound had a half-maximal degradation concentration (DC50) in assay [2] (Table 2) of less than 100 nM.
Take `Cc1nn(C2CCC(=O)NC2=O)c(=O)c2ccc(N3CCN(CC(=O)N4CCC(COc5cnc(-c6cccc(Cn7nc(-c8cccc(C#N)c8)ccc7=O)c6)nc5)CC4)CC3)cc12` (stereo not drawn) [ICT-0001173]: the IC50 in assay [1] (Homo sapiens, MKN-45, 72 h) was less than 100 nM. The 50% degradation concentration (DC50) in assay [2] (Table 2) is less than 100 nM.
`N#Cc1cccc(-c2ccc(=O)n(Cc3cccc(-c4ncc(OCC5CCN(CCCCC(=O)N6CCN(c7ccc8c(=O)n(C9CCC(=O)NC9=O)ncc8c7)CC6)CC5)cn4)c3)n2)c1` (stereo not drawn) [ICT-0001252]: in assay [1] (Homo sapiens, MKN-45, 72 h), the IC50 is less than 100 nM. The same compound displayed a 50% degradation concentration (DC50) in assay [2] (Table 2) of less than 100 nM.
Take `Cc1nn(C2CCC(=O)NC2=O)c(=O)c2cc(N3CCC(CN4CCN(C(=O)CN5CCC(COc6cnc(-c7cccc(Cn8nc(-c9cccc(C#N)c9)ccc8=O)c7)nc6)CC5)CC4)CC3)ccc12` (stereo not drawn) [ICT-0001234]: the IC50 in assay [1] (Homo sapiens, MKN-45, 72 h) is less than 100 nM. This compound displayed a DC50 in assay [2] (Table 2) of more than 1000 nM.
As to `Cn1cc(-c2cnc3c(nnn3C[C@@H]3CN(c4ncc(-c5ccc(CN6CCN(C(=O)CCOCCOCCOCCOCCOCCOCCNc7cccc8cnn(C9CCC(=O)NC9=O)c(=O)c78)CC6)cc5)cn4)CCO3)n2)cn1` (stereo partly drawn) [ICT-0000968], the half-maximal inhibitory concentration (IC50) in assay [1] (setting [4]) lay within 100 to 1000 nM.
With `N#Cc1cccc(-c2ccc(=O)n(Cc3cccc(-c4ncc(OCC5CCN(C(=O)CCCCCNc6ccc7c(=O)n(C8CCC(=O)NC8=O)ncc7c6)CC5)cn4)c3)n2)c1` (stereo not drawn) [ICT-0000984, 3-(1-{[3-(5-{[1-(6-{[2-(2,6-dioxopiperidin-3-yl)-1-oxo-1,2-dihydropthalazine-6-yl]amino}hexanoyl)piperidine-4-il]methoxy}pyrimidine-2-yl)phenyl]methyl}-6-oxo-1,6-dihydropyridazine-3-yl)benzonitrile], the IC50 in assay [1] (Homo sapiens, MKN-45, 72 h) is less than 100 nM.
`Cc1nn(C2CCC(=O)NC2=O)c(=O)c2cc(N3CCC(C(=O)NCCCNC(=O)CN4CCC(COc5cnc(-c6cccc(Cn7nc(-c8cccc(C#N)c8)ccc7=O)c6)nc5)CC4)CC3)ccc12` (stereo not drawn) [ICT-0001238] came in with a DC50 in assay [2] (Table 2) of more than 1000 nM.
Same read-out and setting: the same measure for `Cc1nn(C2CCC(=O)NC2=O)c(=O)c2cc(N3CCN(C(=O)CN4CCC(COc5cnc(-c6cccc(Cn7nc(-c8cccc(C#N)c8)ccc7=O)c6)nc5)CC4)CC3)ccc12` (stereo not drawn) [ICT-0001115, 3-(1-(3-(5-((1-(2-(4-(3-(2,6-dioxopiperidin-3-yl)-1-methyl-4-oxo-3,4-dihydropetalazine-6-yl)piperazine-1-yl)2-oxoethyl)piperidine-4-il)methoxy)pyrimidine-2-yl)benzyl)6-oxo-1,6-dihydropyridazine-3-yl)benzonitrile]: less than 100 nM.
`Cc1nn(C2CCC(=O)NC2=O)c(=O)c2ccc(N3CCN(c4ccc(NCC(=O)N5CCC(COc6cnc(-c7cccc(Cn8nc(-c9cccc(C#N)c9)ccc8=O)c7)nc6)CC5)cc4)CC3)cc12` (stereo not drawn) [ICT-0001240, 3-(1-(3-(5-((1-((4-(4-(2-(2,6-dioxopiperidin-3-yl)-4-methyl-1-oxo-1,2-dihydropthalazine-6-yl)piperazine-1-yl)phenyl)glycyl)piperidine-4-il)methoxy)pyrimidine-2-yl)benzyl)6-oxo-1,6-dihydropyridazine-3-yl)benzonitrile]: in assay [1] (Homo sapiens, MKN-45, 72 h), the half-maximal inhibitory concentration (IC50) was less than 100 nM.
As to `Cn1cc(-c2cnc3c(nnn3C[C@@H]3CN(c4ncc(-c5ccc(CN6CCN(C(=O)COCCOCCOCCOCCOCCNc7cccc8cnn(C9CCC(=O)NC9=O)c(=O)c78)CC6)cc5)cn4)CCO3)n2)cn1` (stereo partly drawn) [ICT-0000967, 3-(8-((17-(4-(4-(2-((S)-2-((5-(1-methyl-1H-pyrazole-4-yl)-1H-[1,2,3]triazolo[4,5-b]pyrazine-1-yl)methyl)morpholino)pyrimidine-5-yl)benzyl)piperazine-1-yl)17-oxo-3,6,9,12,15-pentaheptacel)amino)-1-oxopthalazine-2(1H)-yl)piperidine-2,6-dione], in assay [1] (setting [4]), the IC50 fell in the range of 100 to 1000 nM.
On the same count and under the same terms, the same measure for `Cn1cc(-c2cnc3c(nnn3C[C@@H]3CN(c4ncc(-c5ccc(CN6CCN(C(=O)CCCCCNc7cccc8cnn(C9CCC(=O)NC9=O)c(=O)c78)CC6)cc5)cn4)CCO3)n2)cn1` (stereo partly drawn) [ICT-0000970, 3-(8-((6-(4-(4-(2-((S)-2-((5-(1-methyl-1H-pyrazole-4-yl)-1H-[1,2,3]triazolo[4,5-b]pyrazine-1-yl)methyl)morpholino)pyrimidine-5-yl)benzyl)piperazine-1-yl)6-oxohexyl)amino)1-oxopthalazine-2(1H)-yl)piperidine-2,6-dione]: less than 100 nM; for `Cn1cc(-c2cnc3c(nnn3C[C@@H]3CN(c4ncc(-c5ccc(CN6CCN(C(=O)COCCOCCOCCNc7cccc8cnn(C9CCC(=O)NC9=O)c(=O)c78)CC6)cc5)cn4)CCO3)n2)cn1` (stereo partly drawn) [ICT-0000942, 3-[8-(12-{4-[(4-{2-[(2S)-2-{[5-(1-methyl-1H-pyrazole-4-yl)-1H-[1,2,3]triazolo[4,5-b]pyrazine-1-yl]methyl}morpholine-4-day]pyrimidine-5-yl}phenyl)methyl]piperazine-1-il}-12-oxo-4,7,10-trioxa-1-azadodecane-1-yl)-1-oxo-1,2-dihydroptalazine-2-yl]piperidine-2,6-dione]: less than 100 nM.
For `Cn1cc(-c2cnc3c(nnn3C[C@@H]3CN(c4ncc(-c5ccc(CN6CCN(C(=O)CCOCCOCCNc7cccc8cnn(C9CCC(=O)NC9=O)c(=O)c78)CC6)cc5)cn4)CCO3)n2)cn1` (stereo partly drawn) [ICT-0000940], in assay [1] (Homo sapiens, MKN-45, 72 h), the IC50 lay in the range of 100 to 1000 nM.
As to `Cn1cc(-c2cnc3c(nnn3C[C@@H]3CN(c4ncc(-c5ccc(CN6CCN(C(=O)CCOCCOCCOCCOCCNc7cccc8cnn(C9CCC(=O)NC9=O)c(=O)c78)CC6)cc5)cn4)CCO3)n2)cn1` (stereo partly drawn) [ICT-0000946, 3-[8-(16-{4-[(4-{2-[(2S)-2-{[5-(1-methyl-1H-pyrazole-4-yl)-1H-[1,2,3]triazolo[4,5-b]pyrazine-1-yl]methyl}morpholine-4-day]pyrimidine-5-yl}phenyl)methyl]piperazine-1-yl}-16-oxo-4,7,10,13-tetraoxa-1-azahexadecane-1-yl)-1-oxo-1,2-dihydroptalazine-2-yl]piperidine-2,6-dione], the half-inhibitory concentration (IC50) in assay [1] (setting [4]) was 100 to 1000 nM.
Consider `Cc1nn(C2CCC(=O)NC2=O)c(=O)c2ccc(NCCCC(=O)N3CCC(COc4cnc(-c5cccc(Cn6nc(-c7cccc(C#N)c7)ccc6=O)c5)nc4)CC3)cc12` (stereo not drawn) [ICT-0000989], for which the IC50 in assay [1] (Homo sapiens, MKN-45, 72 h) is less than 100 nM.
In assay [2] (Table 2), `Cc1nn(C2CCC(=O)NC2=O)c(=O)c2ccc(N3CCN(CC4CCN(CC(=O)N5CCC(COc6cnc(-c7cccc(Cn8nc(-c9cccc(C#N)c9)ccc8=O)c7)nc6)CC5)CC4)CC3)cc12` (stereo not drawn) [ICT-0001256] registered a DC50 of less than 100 nM.
As for `N#Cc1cccc(-c2ccc(=O)n(Cc3cccc(-c4ncc(OCC5CCN(C(=O)CCOCCOCCOCCOCCNc6cccc7cnn(C8CCC(=O)NC8=O)c(=O)c67)CC5)cn4)c3)n2)c1` (stereo not drawn) [ICT-0000907], the half-inhibitory concentration (IC50) in assay [1] (Homo sapiens, MKN-45, 72 h) is less than 100 nM.
